# Test results taken from patent publication US20260132132A1, “3A,4,5,6-TETRAHYDRO-1 H-PYRAZOLO[3,4-C]PYRIDIN-7(7AH)-ONE DERIVATIVES AS FACTOR XIIA INHIBITORS” (KALVISTA PHARMACEUTICALS LIMITED, priority 2022, published 2026).
# Molecular target: T1, Human Factor XIIa (hFXIIa) (Homo sapiens, UniProt P00748)
# T1 construct: purchased Enzyme Research Laboratories
# T1 sequence (P00748 373-615 limits assumed): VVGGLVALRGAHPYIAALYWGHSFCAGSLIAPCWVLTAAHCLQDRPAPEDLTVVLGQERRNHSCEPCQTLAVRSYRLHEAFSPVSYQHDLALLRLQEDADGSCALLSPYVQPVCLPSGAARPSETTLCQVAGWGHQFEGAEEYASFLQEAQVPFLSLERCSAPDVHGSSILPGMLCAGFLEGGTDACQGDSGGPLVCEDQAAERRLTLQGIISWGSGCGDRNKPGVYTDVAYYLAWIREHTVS
# T1 sequence (P00748 20-372 partner limits assumed): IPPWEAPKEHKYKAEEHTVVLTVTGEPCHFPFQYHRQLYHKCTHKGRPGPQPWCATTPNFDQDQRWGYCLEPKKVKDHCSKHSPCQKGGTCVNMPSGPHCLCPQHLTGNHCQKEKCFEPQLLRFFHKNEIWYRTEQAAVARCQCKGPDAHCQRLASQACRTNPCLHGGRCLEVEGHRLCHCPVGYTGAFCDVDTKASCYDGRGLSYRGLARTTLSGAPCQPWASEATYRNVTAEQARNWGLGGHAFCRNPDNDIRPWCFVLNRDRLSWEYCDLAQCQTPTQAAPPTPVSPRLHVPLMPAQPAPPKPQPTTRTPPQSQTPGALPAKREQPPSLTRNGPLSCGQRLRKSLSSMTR
# Experiment: Determination of Human Factor XIIa (hFXIIa) inhibition, fluorogenic substrate IC50 assay
# Type: biochemical
# Settings: fluorogenic substrate H-DPro-Phe-Arg-AFC at Km, 25° C., read-out: Human FXIIa IC50
# Method: Determination of Human Factor XIIa (hFXIIa) inhibition
# The Km for the cleavage of the substrate by hFXIIa was determined by standard transformation of the Michaelis-Menten equation, with subsequent inhibition assays performed at substrate Km concentration.
row,IC50 [nM],Compound
1,10000 to 40000,"CCNC(=O)c1nn(-c2cccc(Cl)c2)c2c1CCN(c1cccc(N3C(=O)C[C@H]4C[C@H]43)c1)C2=O (single isomer, unassigned) [Example 1407, 1-(3-Chlorophenyl)-N-ethyl-7-oxo-6-(3-((1R*,5R*)-3-oxo-2-azabicyclo[3.1.0]hexan-2-yl)phenyl)-4,5,6,7-tetrahydro-1H-pyrazolo[3,4-c]pyridine-3-carboxamide]"
2,10000 to 40000,"CN1CCC(CN2CCc3c(C(=O)NCc4ccccc4)nn(-c4cccc(Cl)c4)c3C2=O)CC1 [Example 1016, N-Benzyl-1-(3-chlorophenyl)-6-((1-methylpiperidin-4-yl)methyl)-7-oxo-4,5,6,7-tetrahydro-1H-pyrazolo[3,4-c]pyridine-3-carboxamide]"
3,300 to 1000,"O=C(NCc1ccccc1)c1nn(-c2cccc(Cl)c2)c2c1CCN(c1cccc(CN3CCCC3)c1)C2=O [Example 1017, N-benzyl-1-(3-chlorophenyl)-7-oxo-6-(3-(pyrrolidin-1-ylmethyl)phenyl)-4,5,6,7-tetrahydro-1H-pyrazolo[3,4-c]pyridine-3-carboxamide]"
4,1000 to 3000,"O=C(NCc1ccccc1)c1nn(-c2cccc(Cl)c2)c2c1CCN(c1cccc(CN3CCOCC3)c1)C2=O [Example 1018, N-benzyl-1-(3-chlorophenyl)-6-(3-(morpholinomethyl)phenyl)-7-oxo-4,5,6,7-tetrahydro-1H-pyrazolo[3,4-c]pyridine-3-carboxamide]"
5,300 to 1000,"O=C(NCc1ccccc1)c1nn(-c2cccc(Cl)c2)c2c1CCN(c1ccc3c(c1)CN(CC1CCCC1)CC3)C2=O [Example 1020, N-benzyl-1-(3-chlorophenyl)-6-(2-(cyclopentylmethyl)-1,2,3,4-tetrahydroisoquinolin-7-yl)-7-oxo-4,5,6,7-tetrahydro-1H-pyrazolo[3,4-c]pyridine-3-carboxamide]"
6,300 to 1000,"CN1Cc2ccc(N3CCc4c(C(=O)NCc5ccccc5)nn(-c5cccc(Cl)c5)c4C3=O)cc2C1 [Example 1028, N-benzyl-1-(3-chlorophenyl)-6-(2-methylisoindolin-5-yl)-7-oxo-4,5,6,7-tetrahydro-1H-pyrazolo[3,4-c]pyridine-3-carboxamide]"
7,1000 to 3000,"NC(=O)CN1CCc2ccc(N3CCc4c(C(=O)NCC5CC5)nn(-c5cccc(Cl)c5)c4C3=O)cc2C1 [Example 1033, 6-(2-(2-amino-2-oxoethyl)-1,2,3,4-tetrahydroisoquinolin-7-yl)-1-(3-chlorophenyl)-N-(cyclopropylmethyl)-7-oxo-4,5,6,7-tetrahydro-1H-pyrazolo[3,4-c]pyridine-3-carboxamide]"
8,300 to 1000,"CN1CCc2ccc(N3CCc4c(C(=O)NCC5CC5)nn(-c5cccc(Cl)c5)c4C3=O)nc2C1 [Example 1034, 1-(3-Chlorophenyl)-N-(cyclopropylmethyl)-6-(7-methyl-5,6,7,8-tetrahydro-1,7-naphthyridin-2-yl)-7-oxo-4,5,6,7-tetrahydro-1H-pyrazolo[3,4-c]pyridine-3-carboxamide]"
9,300 to 1000,"CC1CCN(Cc2cccc(N3CCc4c(C(=O)NCc5ccccc5)nn(-c5cccc(Cl)c5)c4C3=O)c2)C1 (stereo not drawn) [Example 1038, N-benzyl-1-(3-chlorophenyl)-6-(3-((3-methylpyrrolidin-1-yl)methyl)phenyl)-7-oxo-4,5,6,7-tetrahydro-1H-pyrazolo[3,4-c]pyridine-3-carboxamide]"
10,300 to 1000,"CC1CCCN1Cc1cccc(N2CCc3c(C(=O)NCc4ccccc4)nn(-c4cccc(Cl)c4)c3C2=O)c1 (stereo not drawn) [Example 1039, N-benzyl-1-(3-chlorophenyl)-6-(3-((2-methylpyrrolidin-1-yl)methyl)phenyl)-7-oxo-4,5,6,7-tetrahydro-1H-pyrazolo[3,4-c]pyridine-3-carboxamide]"
11,1000 to 3000,"CN1CCc2ncc(N3CCc4c(C(=O)NCC5CC5)nn(-c5cccc(Cl)c5)c4C3=O)cc2C1 [Example 1040, 1-(3-Chlorophenyl)-N-(cyclopropylmethyl)-6-(6-methyl-5,6,7,8-tetrahydro-1,6-naphthyridin-3-yl)-7-oxo-4,5,6,7-tetrahydro-1H-pyrazolo[3,4-c]pyridine-3-carboxamide]"
12,300 to 1000,"CN1CCc2ccc(N3CCc4c(C(=O)NC5COC5)nn(-c5cccc(Cl)c5)c4C3=O)cc2C1 [Example 1041, 1-(3-chlorophenyl)-6-(2-methyl-1,2,3,4-tetrahydroisoquinolin-7-yl)-N-(oxetan-3-yl)-7-oxo-4,5,6,7-tetrahydro-1H-pyrazolo[3,4-c]pyridine-3-carboxamide]"
13,300 to 1000,"CN1CCc2ccc(N3CCc4c(C(=O)NC5CCOC5)nn(-c5cccc(Cl)c5)c4C3=O)cc2C1 (stereo not drawn) [Example 1042, 1-(3-chlorophenyl)-6-(2-methyl-1,2,3,4-tetrahydroisoquinolin-7-yl)-7-oxo-N-(tetrahydrofuran-3-yl)-4,5,6,7-tetrahydro-1H-pyrazolo[3,4-c]pyridine-3-carboxamide]"
14,300 to 1000,"CN1CCc2ccc(N3CCc4c(C(=O)NCC5CCO5)nn(-c5cccc(Cl)c5)c4C3=O)cc2C1 (stereo not drawn) [Example 1045, 1-(3-chlorophenyl)-6-(2-methyl-1,2,3,4-tetrahydroisoquinolin-7-yl)-N-(oxetan-2-ylmethyl)-7-oxo-4,5,6,7-tetrahydro-1H-pyrazolo[3,4-c]pyridine-3-carboxamide]"
15,300 to 1000,"CN1CCc2ccc(N3CCc4c(C(=O)NCC56CC(CO)(CCO5)C6)nn(-c5cccc(Cl)c5)c4C3=O)cc2C1 [Example 1046, 1-(3-chlorophenyl)-N-((5-(hydroxymethyl)-2-oxabicyclo[3.1.1]heptan-1-yl)methyl)-6-(2-methyl-1,2,3,4-tetrahydroisoquinolin-7-yl)-7-oxo-4,5,6,7-tetrahydro-1H-pyrazolo[3,4-c]pyridine-3-carboxamide]"
16,300 to 1000,"CN1CCc2ccc(N3CCc4c(C(=O)NCC5COC5)nn(-c5cccc(Cl)c5)c4C3=O)cc2C1 [Example 1047, 1-(3-chlorophenyl)-6-(2-methyl-1,2,3,4-tetrahydroisoquinolin-7-yl)-N-(oxetan-3-ylmethyl)-7-oxo-4,5,6,7-tetrahydro-1H-pyrazolo[3,4-c]pyridine-3-carboxamide]"
17,300 to 1000,"Cc1cc(N2CCc3c(C(=O)NCC4CC4)nn(-c4cccc(Cl)c4)c3C2=O)cc2c1CCN(C)C2 [Example 1048, 1-(3-Chlorophenyl)-N-(cyclopropylmethyl)-6-(2,5-dimethyl-1,2,3,4-tetrahydroisoquinolin-7-yl)-7-oxo-4,5,6,7-tetrahydro-1H-pyrazolo[3,4-c]pyridine-3-carboxamide]"
18,100 to 300,"CN1CCc2ccc(N3CCc4c(C(=O)NCC5(CO)CCC5)nn(-c5cccc(Cl)c5)c4C3=O)cc2C1 [Example 1049, 1-(3-chlorophenyl)-N-((1-(hydroxymethyl)cyclobutyl)methyl)-6-(2-methyl-1,2,3,4-tetrahydroisoquinolin-7-yl)-7-oxo-4,5,6,7-tetrahydro-1H-pyrazolo[3,4-c]pyridine-3-carboxamide]"
19,300 to 1000,"CN1CCc2ccc(N3CCc4c(C(=O)NCC56COC(CO)(C5)C6)nn(-c5cccc(Cl)c5)c4C3=O)cc2C1 [Example 1050, 1-(3-chlorophenyl)-N-((1-(hydroxymethyl)-2-oxabicyclo[2.1.1]hexan-4-yl)methyl)-6-(2-methyl-1,2,3,4-tetrahydroisoquinolin-7-yl)-7-oxo-4,5,6,7-tetrahydro-1H-pyrazolo[3,4-c]pyridine-3-carboxamide]"
20,100 to 300,"CCCN1CCc2ccc(N3CCc4c(C(=O)NCC5CC5)nn(-c5cccc(Cl)c5)c4C3=O)cc2C1 [Example 1052, 1-(3-chlorophenyl)-N-(cyclopropylmethyl)-7-oxo-6-(2-propyl-1,2,3,4-tetrahydroisoquinolin-7-yl)-4,5,6,7-tetrahydro-1H-pyrazolo[3,4-c]pyridine-3-carboxamide]"
21,100 to 300,"COCCCN1CCc2ccc(N3CCc4c(C(=O)NCC5CC5)nn(-c5cccc(Cl)c5)c4C3=O)cc2C1 [Example 1053, 1-(3-chlorophenyl)-N-(cyclopropylmethyl)-6-(2-(3-methoxypropyl)-1,2,3,4-tetrahydroisoquinolin-7-yl)-7-oxo-4,5,6,7-tetrahydro-1H-pyrazolo[3,4-c]pyridine-3-carboxamide]"
22,100 to 300,"CCN1CCc2cc(C)c(N3CCc4c(C(=O)NCC5CC5)nn(-c5cccc(Cl)c5)c4C3=O)cc2C1 [Example 1054, 1-(3-Chlorophenyl)-N-(cyclopropylmethyl)-6-(2-ethyl-6-methyl-1,2,3,4-tetrahydroisoquinolin-7-yl)-7-oxo-4,5,6,7-tetrahydro-1H-pyrazolo[3,4-c]pyridine-3-carboxamide]"
23,300 to 1000,"CCN1CCc2cnc(N3CCc4c(C(=O)NCC5CC5)nn(-c5cccc(Cl)c5)c4C3=O)nc2C1 [Example 1056, 1-(3-Chlorophenyl)-N-(cyclopropylmethyl)-6-(7-ethyl-5,6,7,8-tetrahydropyrido[3,4-d]pyrimidin-2-yl)-7]"
24,300 to 1000,"CN1CCc2ccc(N3CCc4c(C(=O)NC5CCNC(=O)C5)nn(-c5cccc(Cl)c5)c4C3=O)cc2C1 (stereo not drawn) [Example 1057, 1-(3-chlorophenyl)-6-(2-methyl-1,2,3,4-tetrahydroisoquinolin-7-yl)-7-oxo-N-(2-oxopiperidin-4-yl)-4,5,6,7-tetrahydro-1H-pyrazolo[3,4-c]pyridine-3-carboxamide]"
